The values below are quoted from earlier work in publication PMC4894406, “Results of an abbreviated phase-II study with the Akt Inhibitor MK-2206 in Patients with Advanced Biliary Cancer” (Scientific Reports, 2015).

This data set concerns cholangiocarcinoma cell lines. Conditions: pre-clinical data; cited from earlier work.

Turning to `N#CC(=C(/N)Sc1ccccc1N)/C(C#N)=C(/N)Sc1ccccc1N` [UO126], the “effect on CXCL12-induced cholangiocarcinoma cell invasion” value is given as “attenuated”. `O=c1cc(N2CCOCC2)oc2c(-c3ccccc3)cccc12` [LY294002]: the “effect on CXCL12-induced cholangiocarcinoma cell invasion” value is listed as “attenuated”.
